# Assay results from US12083196B2, “Personal cleansing compositions with surfactants for increased foam performance” (ECOLAB USA INC., priority 2020, dated 2024).
# Test: SITA Foam Analyzer foam decay
# Type: physicochemical
# Conditions: single surfactant, 1%, FIG. 2
# Text: The reagents used below include: • Alpha-Step® PC-48 is a C10-16 sodium methyl 2-sulfolaurate and disodium 2-sulfolaurate available from Stepan; • Stepan-Mild® L3 is a predominantly C12 reaction product of lauryl alcohol and lactic acid available from Stepan; • SLES is sodium laureth sulfate; • Cola® Teric is an amphoteric sultaine available from Colonial Chemical, Inc.; • Glucopon® […] is an alkyl polyglycoside available from BASF Corporation; • Suga® Nate is a sodium laurylglucosides hydrooxypropylsulfonate available from Colonial Chemicals, Inc; • Lathanol® LAL is a sodium lauryl sulfoacetate available from Stepan. […] To rename sample measurement files, right click on the open sample window, and click “save” to rename your sample file • 8) If an error occurs at any point with your sample, the measurement reading can be stopped by clicking the red square “Stop icon” or by pressing the large red button on the machine • 9) Organize the graph generated with the icons in the fourth section of the tool bar: create new plot, add/remove data from plot, change axis properties, and view properties. […] Right click to rename the plot, insert or remove the plot and display the foam buildup, foam decay, or both The foam decay time was also measured. […]
substance,measurement,value
sodium laureth sulfate [SLES],loss of foaming over 10 minutes,about 20 mL
